Results taken from patent US11226337B2, “Chemoproteomic profiling of protein electrophilic and oxidative post-translational modifications” (Zenagem, LLC, priority 2017, dated 2022).

What was measured:
Assay in all cases: SILAC RP-ABPP
Type in all cases: cell-based
[1] = target: T1, FASTICD5 FAST kinase domain containing (Q7L8L6) (Homo sapiens, UniProt Q7L8L6); settings: SILAC H/L, HEK293T
T1 construct: shared by both the endogenous and recombinant forms of these proteins; endogenous in cells; host or cells: HEK293T and MDA-MB-231
T1 sequence (Q7L8L6 28-764): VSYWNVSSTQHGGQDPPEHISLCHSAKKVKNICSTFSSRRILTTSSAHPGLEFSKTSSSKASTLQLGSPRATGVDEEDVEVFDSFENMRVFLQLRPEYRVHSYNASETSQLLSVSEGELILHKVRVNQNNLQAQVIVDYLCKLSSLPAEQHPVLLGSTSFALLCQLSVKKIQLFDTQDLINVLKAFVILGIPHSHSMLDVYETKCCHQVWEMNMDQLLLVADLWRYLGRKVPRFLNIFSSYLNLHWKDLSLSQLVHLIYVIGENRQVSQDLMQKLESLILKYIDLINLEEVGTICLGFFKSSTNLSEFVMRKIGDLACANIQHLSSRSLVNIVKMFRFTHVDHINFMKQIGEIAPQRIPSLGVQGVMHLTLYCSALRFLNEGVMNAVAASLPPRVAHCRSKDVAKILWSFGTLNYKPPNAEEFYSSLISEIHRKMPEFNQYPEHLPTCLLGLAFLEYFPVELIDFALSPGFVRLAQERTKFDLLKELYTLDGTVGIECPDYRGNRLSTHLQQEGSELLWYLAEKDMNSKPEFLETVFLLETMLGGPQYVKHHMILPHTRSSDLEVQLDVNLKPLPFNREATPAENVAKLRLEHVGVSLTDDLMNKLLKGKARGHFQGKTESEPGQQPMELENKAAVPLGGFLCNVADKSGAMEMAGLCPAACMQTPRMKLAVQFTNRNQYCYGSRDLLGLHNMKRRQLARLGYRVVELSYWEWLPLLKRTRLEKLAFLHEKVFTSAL
Method: (§1) For MS-based experiments, labelling was performed in a similar manner as described above in Example 2, maintaining the same concentrations of probes. Modifications to this protocol included using isotopically ‘light’ and ‘heavy’ SILAC cells that were also grown to near complete confluence prior to treatment. Isotopically light cells were treated with the non-clickable hydrazine probe (at the same concentration as the probe in ‘enrichment’ experiments) or the probe in the presence of 10-fold excess non-clickable hydrazine probe as a competitor (in ‘competition’ experiments). Isotopically heavy cells were treated with the probe for both types of experiments. These treatments were performed in non-SILAC media. Following treatments, cells were washed with cold PBS to remove the probe-containing media, harvested by scraping, collected by centrifugation (1,400 g, 3 min, 4° C.), washed again by resuspension in cold PBS and frozen as pellets at −80° C. until use.
(§2) The fractionated equimolar mixture of heavy and light soluble proteomes (1-1.5 mg) was diluted to 1 mL in PBS. Click reactions were scaled accordingly (except for biotin-azide) to maintain final concentrations of 0.1 mM TBTA, 1 mM CuSO4, 100 μM biotin-azide (10 mM in DMSO) and 1 mM TCEP. The mixture was vortexed and placed on a rotator at ambient temperature for 1 hour. Sequential addition of and mixture with pre-chilled methanol (MeOH, 2 mL), chloroform (CHCl3, 0.5 mL) and PBS (1 mL) on ice quenched the reaction. The precipitated proteome was centrifuged (5,000 g, 10 min, 4° C.) to fractionate the protein interphase from the organic and aqueous solvent layers. The protein pellet was washed with cold 1:1 MeOH:CHCl3 (3×1 mL), mildly sonicated in cold 4:1 MeOH:CHCl3 (2.5 mL) and pelleted once more by centrifugation (5,000 g, 10 min, 4° C.) to ensure click reagents were efficiently removed.
(§3) Heavy and light parent ion chromatograms associated with successfully identified peptides were extracted and compared using CIMAGE software as previously described^69. At least one ion of a co-eluting heavy-light pair must be accurately identified from a fragmentation event that occurred within the retention time window (±10 min) of parent ion elution. To ensure that the correct pair of peaks is quantified, chromatograms are extracted within a 10 ppm error tolerance of the predicted m/z, the signal-to-noise ratio must be >2.5 and the ‘co-elution correlation score’ and ‘envelope correlation score’ must have R^2 values ≥0.8. In addition, peptides detected as ‘singletons,’ where only the heavy ion of a peptide pair was identified, but for which passed all other filtering parameters, are given a default assigned ratio of ‘20,’ which is defined as any measured ratio that is ≥20.
(§4) To further eliminate false positives and any stochastic variability in the data, protein ratios were then determined by the median peptide ratio derived from three or more unique quantified peptides. Protein ratios that complied with these criteria from a single experiment were then averaged with ratios acquired from ≥3 replicates to provide final values for each type of experiment in both cell lines with both probes. […] Most importantly, there are no robustly measured ratios for proteins identified as probe 1 targets that had measured ratios of ˜1 with probe 2. Probe targets in HEK293T and MDA-MB-231 cells represent data combined from ≥3 independent biological replicates with each cell type performed with several independent batches of synthesized probes over a period of almost two years. […]

[2] = target: T2, GLB1 Betagalactosidase (P16278) (Homo sapiens, UniProt P16278); settings: SILAC H/L
T2 construct: shared by both the endogenous and recombinant forms of these proteins; endogenous in cells; host or cells: HEK293T and MDA-MB-231
T2 sequence (P16278 29-677): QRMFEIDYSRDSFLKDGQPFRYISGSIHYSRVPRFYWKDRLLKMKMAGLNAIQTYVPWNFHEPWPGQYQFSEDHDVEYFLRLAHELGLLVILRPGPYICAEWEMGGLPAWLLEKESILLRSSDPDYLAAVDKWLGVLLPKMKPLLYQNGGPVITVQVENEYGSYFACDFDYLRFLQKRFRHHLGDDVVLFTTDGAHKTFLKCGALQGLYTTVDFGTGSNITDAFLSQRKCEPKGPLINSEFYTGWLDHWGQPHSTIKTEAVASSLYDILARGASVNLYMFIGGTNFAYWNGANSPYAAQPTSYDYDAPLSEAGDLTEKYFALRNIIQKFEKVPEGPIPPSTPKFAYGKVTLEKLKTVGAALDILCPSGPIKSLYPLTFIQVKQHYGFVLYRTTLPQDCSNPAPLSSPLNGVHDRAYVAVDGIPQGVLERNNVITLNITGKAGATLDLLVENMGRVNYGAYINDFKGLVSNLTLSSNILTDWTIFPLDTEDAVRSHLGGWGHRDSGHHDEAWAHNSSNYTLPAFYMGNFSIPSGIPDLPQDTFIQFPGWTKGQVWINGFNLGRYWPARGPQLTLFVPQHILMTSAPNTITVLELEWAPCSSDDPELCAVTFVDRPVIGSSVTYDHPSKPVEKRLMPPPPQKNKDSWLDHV
Method: as §1, §2, §3, §4

[3] = target: T3, KEAP1 Kelchlike ECHassociated protein 1 (Q14145) (Homo sapiens, UniProt Q14145); settings: SILAC H/L
T3 construct: shared by both the endogenous and recombinant forms of these proteins; endogenous in cells; host or cells: HEK293T and MDA-MB-231
Method: as §1, §2, §3, §4

[4] = probe 1 3 mM 0.5 h vs probe 3, HEK293T
[5] = probe 1 vs probe 1+10x probe 3, HEK293T
[6] = probe 2 1 mM 0.5 h vs probe 4, MDA-MB-231
[7] = probe 2 vs probe 2+10x probe 4, MDA-MB-231

T3 sequence (Q14145 whole entry): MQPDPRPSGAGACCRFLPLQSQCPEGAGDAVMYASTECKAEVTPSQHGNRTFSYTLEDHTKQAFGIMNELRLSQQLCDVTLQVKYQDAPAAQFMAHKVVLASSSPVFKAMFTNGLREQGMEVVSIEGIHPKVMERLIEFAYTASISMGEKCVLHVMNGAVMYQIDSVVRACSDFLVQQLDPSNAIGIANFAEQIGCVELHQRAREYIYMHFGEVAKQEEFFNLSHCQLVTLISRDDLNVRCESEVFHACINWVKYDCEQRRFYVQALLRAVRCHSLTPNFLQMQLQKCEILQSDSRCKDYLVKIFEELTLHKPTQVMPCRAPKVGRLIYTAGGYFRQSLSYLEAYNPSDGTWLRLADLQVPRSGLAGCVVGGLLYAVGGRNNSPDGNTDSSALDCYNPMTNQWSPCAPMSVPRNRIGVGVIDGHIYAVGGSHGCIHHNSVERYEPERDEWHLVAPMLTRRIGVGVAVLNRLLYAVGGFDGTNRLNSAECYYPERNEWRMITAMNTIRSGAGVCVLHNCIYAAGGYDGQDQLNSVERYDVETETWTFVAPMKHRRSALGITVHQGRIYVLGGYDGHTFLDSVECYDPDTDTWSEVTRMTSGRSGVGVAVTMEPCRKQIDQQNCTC

enrichment ratioavg ([1]; probe 2 1 mM 0.5 h vs probe 4)	competition ratioavg ([1]; probe 2 vs probe 2+10x probe 4)	enrichment ratioavg [2, 6]	competition ratioavg [2, 7]	enrichment ratioavg [3, 6]	competition ratioavg [3, 7]	SMILES	enrichment ratioavg ([1]; probe 1 3 mM 0.5 h vs probe 3)	competition ratioavg ([1]; probe 1 vs probe 1+10x probe 3)	enrichment ratioavg [2, 4]	competition ratioavg [2, 5]	enrichment ratioavg [3, 4]	competition ratioavg [3, 5]
–	–	–	–	–	–	C#CCNN.Cl [probe 1, prop-2-yn-1-ylhydrazine hydrochloride]	18	3	12	3	17	20
10	3	6	2	12	3	C#CCCNC(=O)c1ccc(NN)cc1.Cl [probe 2, N-(but-3-yn-1-yl)-4-hydrazinylbenzamide hydrochloride]	–	–	–	–	–	–
